Numbered stars: 1 amine (or outer) side, 2 acyl side, 3 side chain; on linkers, the order of the positions; unused ones are H or OH. Square brackets hold non-standard residues; d marks the D form. Ends that are not written are not given here. Peptide text beside a SMILES is read from it. * marks the point of attachment. 3,5‑difluoroPhe/Sta = 3,5-difluorobenzyl statine, O=C(C[C@H](O)[C@H](Cc1cc(F)cc(F)c1)N[*:1])[*:2]; Sta = CC(C)C[C@H](N)[C@@H](O)CC(=O)O; Isovaleryl = CC(C)CC(=O)*
B1: Example 29: 2-carboxy-diphenylether coupled with the peptide 3,5-difluoroPhe/Sta-Val-Ala-Glu-Phe (peptide)
peptide: {2‑carboxy‑diphenylether}-[3,5‑difluoroPhe/Sta]VAEF

Assays:
β-secretase = β-secretase (Homo sapiens, UniProt P56817); test: assays with β-secretase (pepstatin remark); type: biochemical
β-secretase, sequence (P56817 46-501): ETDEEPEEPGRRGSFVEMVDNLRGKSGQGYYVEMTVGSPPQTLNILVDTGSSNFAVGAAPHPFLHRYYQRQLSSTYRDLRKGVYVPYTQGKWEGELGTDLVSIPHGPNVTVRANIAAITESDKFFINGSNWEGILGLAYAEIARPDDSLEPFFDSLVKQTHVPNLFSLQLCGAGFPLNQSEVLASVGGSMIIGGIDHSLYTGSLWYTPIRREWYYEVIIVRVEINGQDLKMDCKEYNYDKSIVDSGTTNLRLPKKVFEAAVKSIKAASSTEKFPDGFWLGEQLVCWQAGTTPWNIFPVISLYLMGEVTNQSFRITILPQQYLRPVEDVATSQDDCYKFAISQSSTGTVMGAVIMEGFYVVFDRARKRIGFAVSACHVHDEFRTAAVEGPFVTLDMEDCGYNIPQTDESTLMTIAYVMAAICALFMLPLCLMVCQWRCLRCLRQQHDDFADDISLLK

Human brain β-Secretase [1] = target: T1, Human brain β-Secretase (Homo sapiens, UniProt P56817); test: MBP-C125 enzyme inhibition assay (ELISA detection of β-secretase cleavage of MBP-C125 substrate); type: biochemical; conditions: pH 4.5, 37° C., 90 minutes, read-out: IC50 Grouping
T1 construct: Human brain β-Secretase from concentrated HiQ pool prepared Jul; from tissue; host or cells: human brain
T1 sequence (P56817 46-501): as above
Procedure: The inhibitory concentration data was obtained by use of the MBP-C125 assay, which determines the relative inhibition of β-secretase cleavage of an MPB-C125 substrate by the compounds assayed. Human brain β-Secretase from concentrated HiQ pool prepared Jul.
Inhibition data was obtained from an ELISA which uses an anti-MBP capture antibody (on precoated and blocked 96-well high binding plates) followed by incubation with diluted enzyme reaction supernatant, incubation with an anti-SW192 specific biotinylated reporter antibody and incubation with streptavidin/alkaline phosphatase. Detection was effected by a fluorescent substrate signal on cleavage by the phosphatase.
Compounds were diluted in a 1:1 dilution series to a six-point concentration curve (two wells per concentration) which took up one 96-plate row per compound tested.
Each of the test compounds was weighed out into a vial and DMSO was added to make up a 10 mM solution. To obtain a final compound concentration of 200 μM at the high point of a 6-point dilution curve, 100 μL of the 10 mM solution was added to well C1 of a 96-well V-bottom plate. Fifty μL of DMSO was added to odd wells of row C across the plate and 1:1 serial dilutions were made. 10 μL of each dilution was added to each of two wells on row C of a corresponding V-bottom plate to which 190 μL of 52 mM NaOAc/7.9% DMSO, pH 4.5 were pre-added. […] The compound concentration in the final enzyme reaction was thus 50 times less than the starting concentration. The final reaction mixture of 200 μM compound for the highest curve point was in 5% DMSO, 20 mM NaAc, 0.06% TX100, at pH 4.5. The enzyme reaction was started by warming the plates to 37° C. After 90 minutes at 37° C., 200 μL/well cold specimen diluent was added to stop the reaction and 20 μL/well was transferred to a corresponding α-MBP coated ELISA plate, containing 80 μL/well specimen diluent. […] The signal was read on a fluorescent plate reader.

Human brain β-Secretase [2] = target: Human brain β-Secretase (human, UniProt P56817 46-501, limits assumed); test: cell-based or functional assay
Human brain β-Secretase (human, UniProt P56817 46-501, limits assumed), sequence (P56817 46-501 limits assumed): as the sequence (P56817 46-501) above

| Molecule | IC50 (Human brain β-Secretase [1]) [µM] | also measured |
| --- | --- | --- |
| CC(C)CC(=O)N[C@H](C(=O)N[C@H](C(=O)N[C@@H](CC(C)C)[C@@H](O)CC(=O)N[C@@H](C)C(=O)N[C@@H](CC(C)C)[C@@H](O)CC(=O)O)C(C)C)C(C)C [pepstatin] (Isovaleryl-VV[Sta]A[Sta]-OH) | – | inhibitory activity in assays with β-secretase (β-secretase): no inhibitory activity |
| 4-carboxycinnoline coupled to the 3,5-difluoroPhe/Sta-Val-Ala-Glu-Phe [Example 44] | 10 to 99 | – |
| glutaric acid piperidine amide coupled with the derivatized Sta-Val-Ala-Glu-Phe pentapeptide [Example 33] | 10 to 99 | – |
| 2-carboxy-diphenylether coupled with the peptide 3,5-difluoroPhe/Sta-Val-Ala-Glu-Phe [Example 29] | < 10 | – |
| COC(=O)c1cccc(C(=O)N[C@@H](Cc2cc(F)cc(F)c2)[C@@H](O)CC(=O)N[C@H](C(=O)NC2CC(C(=O)O)C[C@H](C(=O)O)C2)C(C)C)c1 (some centres unmarked) [Example 39] | < 10 | – |
| CCCN(CCC)C(=O)c1cccc(CNC(Cc2cc(F)cc(F)c2)C(O)CC(=O)NC(C(=O)NC2CC(C(=O)O)CC(C(=O)O)C2)C(C)C)c1 (stereo not drawn) [Example 54, 3-N,N-di-n-propyl-carboxamidobenzyl-difluorophenylstatine-Val-1-amino-3,5-cis,cis-cyclohexyldicarboxylic acid] | < 10 | – |
| geminal dimethyl glutaric dimethylamide group coupled to the derivatized Sta-Val-Ala-Glu-Phe pentapeptide [Example 32] | 10 to 99 | – |
| B1 | – | IC50 Grouping (MBP-C125 enzyme inhibition assay, ELISA read-out) (Human brain β-Secretase [2]): < 10 µM |
